In patent US20250011299A1, “PYRIDAZINYL AMINO DERIVATIVES AS ALK5 INHIBITORS” (CHIESI FARMACEUTICI S.P.A., priority 2021, published 2025):
pKi: −log10 of the molar value.

target: T1, human ALK5 (Homo sapiens, UniProt P36897); test: ADP-GLO Kinases assay of ALK5 enzymatic activity; format: biochemical; details: purified recombinant human ALK5, TGFβ1 peptide substrate, pIC50 converted to pKi by Cheng-Prusoff, high ATP protocol (15 μM) for very potent compounds, 25° C.
T1 construct: human ALK5 (recombinant TGF β1 N-term GST-tagged, 80-end); GST (N); purchased
T1 sequence (P36897 80-503 limits assumed): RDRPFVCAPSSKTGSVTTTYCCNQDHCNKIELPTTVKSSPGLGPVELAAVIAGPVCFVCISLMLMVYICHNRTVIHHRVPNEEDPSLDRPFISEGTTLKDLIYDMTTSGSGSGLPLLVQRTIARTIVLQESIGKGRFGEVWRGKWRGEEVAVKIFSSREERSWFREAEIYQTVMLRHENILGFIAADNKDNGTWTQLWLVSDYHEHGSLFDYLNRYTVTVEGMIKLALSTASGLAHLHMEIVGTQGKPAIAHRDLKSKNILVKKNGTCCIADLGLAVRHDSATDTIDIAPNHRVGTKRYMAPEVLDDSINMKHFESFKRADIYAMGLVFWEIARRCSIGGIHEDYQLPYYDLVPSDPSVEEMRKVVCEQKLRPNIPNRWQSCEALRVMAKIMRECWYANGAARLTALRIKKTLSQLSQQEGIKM
Outline: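 Purified ALK5 preincubated 15 min with compound, then reacted with substrate and ATP; ADP formed read by ADP-Glo luminescence after 120 min or 60 min reaction, all steps at 25° C. 11-point concentration-response; pIC50 converted to pKi via Cheng-Prusoff.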

SMILES | pKi
CN1C[C@@H]2C[C@H]1CN2CC(=O)Nc1cc(Nc2cc(-c3cc(Cl)ccc3F)nnc2OC[C@H]2C[C@@H](O)C2)ccn1 [Example 122, N-(4-{[6-(5-chloro-2-fluorophenyl)-3-[(3-hydroxycyclobutyl)methoxy]pyridazin-4-yl]amino}pyridin-2-yl)-2-[(1S,4S)-5-methyl-2,5-diazabicyclo[2.2.1]heptan-2-yl]acetamide] | ≥ 10.00
CN1CCN(CCOc2ccc3c(Nc4cc(-c5cc(Cl)ccc5F)nnc4OCCO)ccnc3c2)CC1 [Example 2, 2-{[6-(5-chloro-2-fluorophenyl)-4-({7-[2-(4-methylpiperazin-1-yl)ethoxy]quinolin-4-yl}amino)pyridazin-3-yl]oxy}ethan-1-ol] | ≥ 10.00
COC(=O)NCCN1CCN(CCC(=O)Nc2cc(Nc3cc(-c4cc(Cl)ccc4F)nnc3SC)ccn2)CC1 [Example 21, methyl N-[2-(4-{2-[(4-{[6-(5-chloro-2-fluorophenyl)-3-(methylsulfanyl)pyridazin-4-yl]amino}pyridin-2-yl)carbamoyl]ethyl}piperazin-1-yl)ethyl]carbamate] | ≥ 10.00
CN1CCN([C@H]2C[C@@H](C(=O)Nc3cc(Nc4cc(-c5cc(Cl)ccc5F)nnc4SC(C)(C)CO)ccn3)C2)CC1 [Example 94, Cis N-(4-{[6-(5-chloro-2-fluorophenyl)-3-[(1-hydroxy-2-methylpropan-2-yl)sulfanyl]pyridazin-4-yl]amino}pyridin-2-yl)-3-(4-methylpiperazin-1-yl)cyclobutane-1-carboxamide] | ≥ 10.00
CN1CCN([C@H]2C[C@H](C(=O)Nc3cc(Nc4cc(-c5cc(Cl)ccc5F)nnc4OC4CCOC4)ccn3)C2)CC1 (single isomer, unassigned) [Example 112, N-(4-{[6-(5-chloro-2-fluorophenyl)-3-(oxolan-3-yloxy)pyridazin-4-yl]amino}pyridin-2-yl)-3-(4-methylpiperazin-1-yl)cyclobutane-1-carboxamide] | ≥ 10.00
CSc1nnc(-c2cc(Cl)ccc2F)cc1Nc1ccnc(NC(=O)CCN2CCNCC2)c1 [Example 62, N-(4-{[6-(5-chloro-2-fluorophenyl)-3-(methylsulfanyl)pyridazin-4-yl]amino}pyridin-2-yl)-3-(piperazin-1-yl)propanamide] | ≥ 10.00
COC(=O)c1cc2c(Nc3cc(-c4cc(Cl)ccc4F)nnc3OCCC[N+](C)(C)C)ccnc2[nH]1 [Example 11, (3-{[6-(5-chloro-2-fluorophenyl)-4-{[2-(methoxycarbonyl)-1H-pyrrolo[2,3-b]pyridin-4-yl]amino}pyridazin-3-yl]oxy}propyl)trimethylazanium chloride] | 8.50 to 9.40
CN1CCN(CCOc2nnc(-c3cc(Cl)ccc3F)cc2Nc2ccnc3[nH]ccc23)CC1 [Example 37, 6-(5-chloro-2-fluorophenyl)-3-[2-(4-methylpiperazin-1-yl)ethoxy]-N-{1H-pyrrolo[2,3-b]pyridin-4-yl}pyridazin-4-amine] | 8.50 to 9.40
CN(C)CCOc1nnc(-c2cc(Cl)ccc2F)cc1Nc1ccnc(NC(=O)C2CC2)c1 [Example 38, N-(4-{[6-(5-chloro-2-fluorophenyl)-3-[2-(dimethylamino)ethoxy]pyridazin-4-yl]amino}pyridin-2-yl)cyclopropanecarboxamide] | ≥ 10.00
CN1CCN([C@H]2C[C@@H](C(=O)Nc3cc(Nc4cc(-c5cc(Cl)ccc5F)nnc4SCCO)ccn3)C2)CC1CCF (mixture of isomers) [Example 172, Cis N-(4-{[6-(5-chloro-2-fluorophenyl)-3-[(2-hydroxyethyl)sulfanyl]pyridazin-4-yl]amino}pyridin-2-yl)-3-[3-(2-fluoroethyl)-4-methylpiperazin-1-yl]cyclobutane-1-carboxamide] | ≥ 10.00
C[C@@H]1CN(CCC(=O)Nc2cc(Nc3cc(-c4cc(Cl)ccc4F)nnc3N(C)CC3(C)CCOC3=O)ncn2)C[C@H](C)N1 (single isomer, unassigned) [Example 198, N-(6-{[6-(5-chloro-2-fluorophenyl)-3-{methyl[(3-methyl-2-oxooxolan-3-yl)methyl]amino}pyridazin-4-yl]amino}pyrimidin-4-yl)-3-(3,5-dimethylpiperazin-1-yl)propanamide] | ≥ 10.00
CN1CCN([C@H]2C[C@@H](C(=O)Nc3cc(Nc4cc(-c5cc(Cl)ccc5F)nnc4SCCO)ccn3)C2)CC12CC2 [Example 90, Cis N-(4-{[6-(5-chloro-2-fluorophenyl)-3-[(2-hydroxyethyl)sulfanyl]pyridazin-4-yl]amino}pyridin-2-yl)-3-{4-methyl-4,7-diazaspiro[2.5]octan-7-yl}cyclobutane-1-carboxamide] | ≥ 10.00
COc1ccc2c(Nc3cc(-c4cc(Cl)ccc4F)nnc3OCCN3CCN(C)CC3)ccnc2c1 [Example 35, N-[6-(5-chloro-2-fluorophenyl)-3-[2-(4-methylpiperazin-1-yl)ethoxy]pyridazin-4-yl]-7-methoxyquinolin-4-amine] | 9.50 to 9.90
CN1CCCN(CC(=O)Nc2cc(Nc3cc(-c4cc(Cl)ccc4F)nnc3N(C)CC3(C)CCOC3=O)ncn2)CC1 (single isomer, unassigned) [Example 208, N-(6-{[6-(5-chloro-2-fluorophenyl)-3-{methyl[(3-methyl-2-oxooxolan-3-yl)methyl]amino}pyridazin-4-yl]amino}pyrimidin-4-yl)-2-(4-methyl-1,4-diazepan-1-yl)acetamide] | ≥ 10.00
CN1CCN([C@H]2C[C@@H](C(=O)Nc3cc(Nc4cc(-c5cc(Cl)ccc5F)nnc4N(C)CC4(C)CCOC4=O)ccn3)C2)CC1 (single isomer, unassigned) [Example 136, Cis N-(4-{[6-(5-chloro-2-fluorophenyl)-3-{methyl[(3-methyl-2-oxooxolan-3-yl)methyl]amino}pyridazin-4-yl]amino}pyridin-2-yl)-3-(4-methylpiperazin-1-yl)cyclobutane-1-carboxamide] | 9.50 to 9.90
COC(=O)C12CC(COc3nnc(-c4cc(Cl)ccc4F)cc3Nc3ccnc(NC(=O)[C@H]4C[C@@H](N5CCN(C)CC5)C4)c3)(C1)C2 [Example 126, Cis methyl 3-({[6-(5-chloro-2-fluorophenyl)-4-({2-[(1s,3s)-3-(4-methylpiperazin-1-yl)cyclobutaneamido]pyridin-4-yl}amino)pyridazin-3-yl]oxy}methyl)bicyclo[1.1.1]pentane-1-carboxylate] | ≥ 10.00

Next, values leading:

pKi | SMILES
9.50 to 9.90 | CN1CCN(CCC(=O)Nc2cc(Nc3cc(-c4cc(Cl)ccc4F)nnc3S(C)(=O)=O)ccn2)CC1 [Example 18, N-(4-{[6-(5-chloro-2-fluorophenyl)-3-methanesulfonylpyridazin-4-yl]amino}pyridin-2-yl)-3-(4-methylpiperazin-1-yl)propanamide]
9.50 to 9.90 | CN1CCN(CCC(=O)Nc2cc(Nc3cc(-c4cc(Cl)ccc4F)nnc3SCc3cccc(C(=O)O)c3)ccn2)CC1 [Example 196, 3-({[6-(5-chloro-2-fluorophenyl)-4-({2-[3-(4-methylpiperazin-1-yl)propanamido]pyridin-4-yl}amino)pyridazin-3-yl]sulfanyl}methyl)benzoic acid]
≥ 10.00 | CN1CCN(CCC(=O)Nc2cc(Nc3cc(-c4cc(Cl)ccc4F)nnc3SC[C@H]3C[C@@H](O)C3)ccn2)CC1 [Example 154, N-(4-{[6-(5-chloro-2-fluorophenyl)-3-{[(3-hydroxycyclobutyl)methyl]sulfanyl}pyridazin-4-yl]amino}pyridin-2-yl)-3-(4-methylpiperazin-1-yl)propanamide]
≥ 10.00 | CN1CCN(CCC(=O)Nc2cc(Nc3cc(-c4cc(Cl)ccc4F)nnc3OC3CCOC3)ccn2)CC1 (single isomer, unassigned) [Example 75, N-(4-{[6-(5-chloro-2-fluorophenyl)-3-(oxolan-3-yloxy)pyridazin-4-yl]amino}pyridin-2-yl)-3-(4-methylpiperazin-1-yl)propanamide]
≥ 10.00 | CN1CCN(CCC(=O)Nc2cc(Nc3cc(-c4cc(Cl)ccc4F)nnc3N(C)CC3(CO)CCOC3=O)ccn2)CC1 (stereo not drawn) [Example 152, N-(4-{[6-(5-chloro-2-fluorophenyl)-3-({[3-(hydroxymethyl)-2-oxooxolan-3-yl]methyl}(methyl)amino)pyridazin-4-yl]amino}pyridin-2-yl)-3-(4-methylpiperazin-1-yl)propanamide]
9.50 to 9.90 | CN1CCN(CCC(=O)Nc2cc(Nc3cc(-c4cc(Cl)ccc4F)nnc3S)ccn2)CC1 [Example 179, N-(4-{[6-(5-chloro-2-fluorophenyl)-3-sulfanylpyridazin-4-yl]amino}pyridin-2-yl)-3-(4-methylpiperazin-1-yl)propanamide]
≥ 10.00 | CN1CCN(CCC(=O)Nc2cc(Nc3cc(-c4cc(Cl)ccc4F)nnc3OCCCS(C)(=O)=O)ccn2)CC1 [Example 7, N-(4-{[6-(5-chloro-2-fluorophenyl)-3-(3-methanesulfonylpropoxy)pyridazin-4-yl]amino}pyridin-2-yl)-3-(4-methylpiperazin-1-yl)propanamide]
≥ 10.00 | CN1CCN(CCC(=O)Nc2cc(Nc3cc(-c4cc(Cl)ccc4F)nnc3N(C)C[C@@]3(C)CCOC3=O)ccn2)CC1 (racemic) [Example 127, N-(4-{[6-(5-chloro-2-fluorophenyl)-3-{methyl[(3-methyl-2-oxooxolan-3-yl)methyl]amino}pyridazin-4-yl]amino}pyridin-2-yl)-3-(4-methylpiperazin-1-yl)propanamide]
